US20260216101A1, “Selective Serotonin Receptor Modulators and Methods of Making and Using the Same” (Park City Bio, LLC, priority 2024, published 2026)

Tests used:
5-HT2A receptor = target: T1, 5-HT2A receptor (Homo sapiens, UniProt P28223); test: 5-HT2 receptor-mediated Gq activation via Gq/γ1 dissociation BRET (5-HT2A); assay type: cell-based; settings: predicted based on the level of 5-HT2A agonist efficacy
T1 construct: expressed in transfected cells; host or cells: HEK293T
Excerpt: (§1) To measure 5-HT2 receptor-mediated Gq activation via Gq/y1 dissociation as measured by Bioluminescence Resonance Energy Transfer (BRET) (McCorvy J D, Wacker D, Wang S, Agegnehu B, Liu J, Lansu K, Tribo A R, Olsen R H J, Che T, Jin J, Roth B L. Structural determinants of 5-HT2B receptor activation and biased agonism. Nat Struct Mol Biol. 2018; 25(9): 787-96), HEK293T cells were sub-cultured in Dulbecco's Modified Eagle Medium (DMEM) supplemented with 10% dialyzed fetal bovine serum (FBS) and were co-transfected in a 1:1:1:1 ratio with Rluc8-fused human Gaq (Gaq-Rluc8), a GFP2-fused to the C-terminus of human Gy1(Gy1-GFP2), human G131, and 5-HT2 receptor using TransiT-2020. After at least 18-24 hours, transfected cells were plated in poly-lysine coated 96-well white clear bottom cell culture plates in DMEM containing 1% dialyzed FBS at a density of 25,000-40,000 cells in 200 μL per well and incubated overnight. The following day, medium was decanted, and cells were washed with 60 μL of drug buffer (1×HBSS, 20 mM HEPES, pH 7.4), then 60 μL of drug buffer was added per well. Cells were pre-incubated at in a humidified atmosphere at 37° C. before receiving drug stimulation. […] Substrate addition occurred 15 minutes before reading and utilized 10 μL of the Rluc substrate coelenterazine 400a for Gq dissociation BRET^2 (Prolume/Nanolight, 5 μM final concentration). Plates were read for luminescence at 400 nm and fluorescent GFP2 emission at 510 nm at 1 second per well using a Mithras LB940 multimode microplate reader (e.g. one provided by Berthold). The BRET ratios of fluorescence/luminescence were calculated per well and were plotted as a function of drug concentration using Graphpad Prism 8 (Graphpad Software Inc., San Diego, CA). Data were normalized to % 5-HT stimulation and analyzed using nonlinear regression “log(agonist) vs. response” to yield Emax and EC50 parameter estimates. […]

5-HT2C receptor = target: T2, 5-HT2C receptor (Homo sapiens, UniProt P28335); test: 5-HT2 receptor-mediated Gq activation via Gq/γ1 dissociation BRET (5-HT2C); assay type: cell-based; settings: primary 5-HT2C signaling via Gq-coupled mechanism compared to β-arrestin
T2 construct: expressed in transfected cells; host or cells: HEK293T
T2 sequence (P28335 33-458): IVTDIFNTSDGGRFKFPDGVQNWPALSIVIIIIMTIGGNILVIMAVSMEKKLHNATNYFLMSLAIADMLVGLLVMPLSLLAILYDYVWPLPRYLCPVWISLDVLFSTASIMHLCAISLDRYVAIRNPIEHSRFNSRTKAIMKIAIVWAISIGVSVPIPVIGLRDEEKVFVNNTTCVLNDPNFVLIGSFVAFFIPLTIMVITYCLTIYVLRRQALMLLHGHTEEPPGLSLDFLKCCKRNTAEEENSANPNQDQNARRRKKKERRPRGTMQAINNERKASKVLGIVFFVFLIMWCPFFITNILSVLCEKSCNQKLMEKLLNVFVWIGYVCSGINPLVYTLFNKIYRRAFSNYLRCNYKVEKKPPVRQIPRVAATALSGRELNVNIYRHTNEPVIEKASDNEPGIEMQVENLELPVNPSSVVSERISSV
Excerpt: as §1

T1 sequence (P28223 whole entry): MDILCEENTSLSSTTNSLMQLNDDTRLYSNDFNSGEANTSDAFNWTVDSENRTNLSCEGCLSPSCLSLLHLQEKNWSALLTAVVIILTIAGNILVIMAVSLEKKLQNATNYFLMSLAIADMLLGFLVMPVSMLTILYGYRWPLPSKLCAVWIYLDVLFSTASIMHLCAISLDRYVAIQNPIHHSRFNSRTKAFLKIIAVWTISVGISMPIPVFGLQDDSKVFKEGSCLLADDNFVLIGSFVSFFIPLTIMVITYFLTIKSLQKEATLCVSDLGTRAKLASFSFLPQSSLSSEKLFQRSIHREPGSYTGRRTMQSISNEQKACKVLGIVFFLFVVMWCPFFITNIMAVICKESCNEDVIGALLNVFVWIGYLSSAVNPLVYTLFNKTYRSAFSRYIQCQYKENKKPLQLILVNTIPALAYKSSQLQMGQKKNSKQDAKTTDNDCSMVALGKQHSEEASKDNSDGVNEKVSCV

SMILES | Hall or N-Hall? (hallucinogenic or non-hallucinogenic plastogenic effect) (5-HT2A receptor) | 5-HT2C Gq signaling bias? (5-HT2C receptor)
CNC[C@H]1C[C@@H]1c1cc(F)ccc1OC | N-Hall | Yes
CSc1ccc(F)cc1C1CC1CN(C)C (stereo not drawn) | N-Hall | Yes
CNCC1CC1c1cc(F)ccc1SC (stereo not drawn) | N-Hall | Yes
